PubChem BioAssay (NCI)
Where “and” joins values, the source holds several entries; their conditions need not be identical. Equal entries are not always repeated.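 Protocol summary: plate cells (96-well), add compound at 5 concentrations, incubate 48 h, interpolate endpoints linearly. Abbreviation: GI50, concentration required for 50% inhibition of growth. The concentration for full growth arrest is given as TGI.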

Tests used:
Assay in all cases: DTP human tumour cell line panel, 48 h
U251 CNS = tested on: U251 CNS
HOP-92 NSCLC = tested on: HOP-92 NSCLC
OVCAR-8 ovarian = tested on: OVCAR-8 ovarian
MALME-3M melanoma = tested on: MALME-3M melanoma
UACC-257 melanoma = tested on: UACC-257 melanoma
LOX IMVI melanoma = tested on: LOX IMVI melanoma
SNB-75 CNS = tested on: SNB-75 CNS
SNB-19 CNS = tested on: SNB-19 CNS
NCI-H226 lung = tested on: NCI-H226 lung
DMS 114 small cell lung = tested on: DMS 114 small cell lung

Row | SMILES | GI50 (U251 CNS) | TGI (U251 CNS) | GI50 (HOP-92 NSCLC) | TGI (HOP-92 NSCLC) | GI50 (OVCAR-8 ovarian) | TGI (OVCAR-8 ovarian) | GI50 (MALME-3M melanoma) | TGI (MALME-3M melanoma) | GI50 (UACC-257 melanoma) | TGI (UACC-257 melanoma) | GI50 (LOX IMVI melanoma) | TGI (LOX IMVI melanoma) | GI50 (SNB-75 CNS) | TGI (SNB-75 CNS) | GI50 (SNB-19 CNS) | TGI (SNB-19 CNS) | GI50 (NCI-H226 lung) | TGI (NCI-H226 lung) | TGI (DMS 114 small cell lung)
1 | COc1ccc(-c2nc3ncccn3c2/C=C/C(=O)c2cc(OC)c(OC)c(OC)c2)cc1 | 1.29 µM | 4.26 µM | 1430 nM | 12 µM | 2.72 µM | > 100 µM | 1810 nM | 17.1 µM | 1.88 µM | 4.81 µM | 1.46 µM | 3 µM | 1890 nM | 5.05 µM | 3.01 µM | 10.3 µM | 2.28 µM | 6.92 µM | –
2 | CC1=C2C[C@H]3[C@@H](CC=C4C[C@@H](O)CC[C@@]43C)[C@@H]2CC[C@]12O[C@@H]1C[C@H](C)CN[C@H]1[C@H]2C | 7.96 µM and 18.6 µM | 18.3 µM and 39.6 µM | 21600 nM | 57.9 µM | 11.6 µM and 20.2 µM | 50 µM and 48.5 µM | 19300 nM and 17600 nM | 50 µM and 36 µM | 20.3 µM and 17.3 µM | 50 µM and 33.1 µM | 10.5 µM and 16.9 µM | 31.8 µM and 33.5 µM | > 50000 nM and 18800 nM | > 50 µM and 42.7 µM | 22.6 µM and 20.7 µM | 50 µM and 52.6 µM | > 50 µM and 23.1 µM | > 50 µM and 55.3 µM | –
3 | CCCCCCCCCCC(O)C1CCC(C(O)CCC(O)C2CCC(CCCCCCC[C@H](O)CC3=C[C@@H](C)OC3=O)O2)O1 (stereo partly specified) | – | > 100 µM | – | > 100 µM | 7.39 µM | 34 µM | – | > 100 µM | 0.461 µM | > 100 µM | 2.24 µM | > 100 µM | 2920 nM | 25.4 µM | – | > 88.3 µM | – | 40.4 µM | –
4 | C[C@@H]1N=C(c2ccc(Br)cc2)Nc2nc3ccccn3c2C1=O | 6.64 µM | > 100 µM | 1160 nM | 23 µM | 17 µM | > 100 µM | 15200 nM | > 100 µM | 35.2 µM | > 100 µM | 6.34 µM | > 100 µM | 703 nM | 7.06 µM | 7.45 µM | > 100 µM | 14.7 µM | > 100 µM | –
5 | NC(=O)c1ccc2c(-c3ccnc(NCCCO)n3)c(-c3ccc(F)cc3)nn2c1 | > 25 µM | > 25 µM | > 25000 nM | > 25 µM | > 25 µM | > 25 µM | > 25000 nM | > 25 µM | > 25 µM | > 25 µM | > 25 µM | > 25 µM | > 10000 nM | > 25 µM | > 25 µM | > 25 µM | > 25 µM | > 25 µM | –
6 | c1cc(OCCN2CCCCC2)ccc1CNc1ccc2nc(CCC3CCCCC3)[nH]c2c1 | 1.49 µM | 2.94 µM | 565 nM | 2.45 µM | 2.42 µM | 6.82 µM | 1620 nM | 3.14 µM | 1.91 µM | 3.89 µM | 1.75 µM | 3.19 µM | 1620 nM | 4.08 µM | 3.05 µM | 10.4 µM | 1.83 µM | 4.29 µM | –
7 | CN(C)CC/C(=N\Nc1ccccc1)c1ccccc1 | – | > 100 µM | – | 36.5 µM | – | – | – | 25.6 µM | – | – | – | – | – | – | – | > 100 µM | – | – | > 100 µM
8 | O=P([O-])(O)OP(=O)([O-])O.[NH-][C@@H]1CCCC[C@H]1[NH-].[Pt+4] | 42.4 µM and 8.27 µM | > 100 µM | > 100000 nM and 12200 nM | > 100 µM | 14.1 µM and 2.42 µM | > 100 µM | 11700 nM and 2980 nM | > 100 µM and 29 µM | 70.6 µM and 7.93 µM | > 100 µM | 15.6 µM and 6.86 µM | > 100 µM | > 100000 nM and 34000 nM | > 100 µM | 47.9 µM and 14.9 µM | > 100 µM | 32.3 µM and 5.29 µM | > 100 µM and 33.6 µM | –
9 | COC(=O)c1c2c(c(C)[n+]([O-])c1C)C(=O)C=C(NCc1ccc(OC)cc1)C2=O | 2.05 µM | 5.48 µM | 2350 nM | 6.12 µM | 1.11 µM | 4.48 µM | 300 nM | 0.845 µM | 0.758 µM | 2.08 µM | 0.911 µM | 3.77 µM | 5120 nM | 9.53 µM | 2.12 µM | 5.58 µM | 2.66 µM | 7.94 µM | –
10 | COc1c(Cl)c2c(c(OC)c1OC)-c1ccc(SC)c(=O)cc1[C@@H](NC(=O)OCC(F)(F)F)CC2 | < 0.01 µM | > 39.2 µM | < 17.9 nM | 7.03 µM | < 0.01 µM | > 100 µM | < 10.4 nM | 42.6 µM | 9.61 µM | > 100 µM | < 0.01 µM | > 100 µM | < 10 nM | > 100 µM | < 0.01 µM | > 100 µM | < 0.01 µM | 41.5 µM | –
11 | Cn1nc(-c2ccccc2)nc1[N+](=O)[O-] | – | > 10 µM | – | > 10 µM | – | > 10 µM | – | > 10 µM | – | > 10 µM | – | > 10 µM | – | > 10 µM | – | > 10 µM | – | > 10 µM | –
12 | CN(C)C1CCN(C(=O)c2ccc(NC(=O)Nc3ccc(-c4nc(N5CCOCC5)nc(N5CCOCC5)n4)cc3)cc2)CC1 | 0.0171 µM and 0.0116 µM and 0.0375 µM | 15.1 µM and 2.5 µM and 2.44 µM | < 10 nM and 6.27 nM and 13.8 nM | 0.0288 µM and 0.0544 µM and 0.116 µM | 0.0545 µM and 0.0926 µM and 0.437 µM | – | 13.8 nM and 38.2 nM and 8.99 nM | 0.053 µM and 0.24 µM and 0.054 µM | 0.0289 µM and 0.0633 µM and 0.0266 µM | 0.151 µM and 0.386 µM and 0.243 µM | < 0.01 µM and 0.0111 µM and 0.0296 µM | – | < 10 nM and 5.85 nM and 5.68 nM | 0.0164 µM and 0.0427 µM and 0.0783 µM | < 0.0123 µM and 0.0131 µM and 0.0174 µM | 4.23 µM and 2.5 µM and 0.875 µM | – | 0.38 µM and 1.95 µM and 0.257 µM | –
13 | CC(=O)/C(=C\C1=CCCO1)C(=O)Nc1ccccc1C | – | > 100 µM | – | > 100 µM | – | > 100 µM | – | > 100 µM | – | > 100 µM | – | > 100 µM | – | – | – | > 100 µM | – | > 100 µM | > 100 µM
14 | COc1ccc2c(CN3CCC[C@H]3C(=O)O)cc3cc4c(cc3c2c1)OCO4 | 13.2 µM | > 100 µM | 17400 nM | 82.5 µM | 5.65 µM | 82.3 µM | 2590 nM | 17.7 µM | 12.6 µM | 45.8 µM | 5.06 µM | 43.6 µM | 11400 nM | 30.1 µM | 14 µM | > 100 µM | 17 µM | > 100 µM | –
15 | CCOc1ccc(Nc2nc(-c3ccc4c(c3)NC(=O)CO4)cs2)cc1 | 10.7 µM | > 100 µM | 12400 nM | > 100 µM | 4 µM | > 100 µM | 4710 nM | 20.4 µM | 3.37 µM | 11 µM | 5.33 µM | > 100 µM | 18000 nM | > 100 µM | 18.9 µM | > 100 µM | 10 µM | > 100 µM | –
